# In patent US20230015532A1, “PHARMACEUTICAL COMPOSITION, FOR PREVENTING OR TREATING FIBROSIS, COMPRISING PHEOPHORBIDE COMPOUND AS ACTIVE INGREDIENT” (PAEAN BIOTECHNOLOGY INC., priority 2019, published 2023):
# How the values were obtained:
# Type in all cases: cell-based, human
# [1] = tested on: α-SMA, CTGF and NOX4 genes in CCD8-Lu cells; assay: Comparison of anti-fibrotic activity by quantitative real-time PCR (Experimental Example 4.1); conditions: 2.5 μM and 5 μM; 6 hours after 5 ng/ml TGF-β, 18 hours; qRT-PCR
# Procedure: A cell-based analysis experiment was performed to analyze the anti-fibrotic activity of pheophorbide a obtained in Preparation Example 2 in comparison with nintedanib and pirfenidone, which were previously approved as a therapeutic agent for pulmonary fibrosis, using quantitative real-time polymerase chain reaction.
# (§1) CCD8-Lu cells, which are human lung-derived fibroblasts, were cultured in the DMEM medium containing 10% FBS. About 2×10^5 cells were then inoculated into a 6 well plate, cultured for 24 hours, and subjected to the deficient condition in the DMEM medium from which FBS was removed for about 24 hours.
# 24 hours later, following the treatment with TGF-β at a concentration of 5 ng/ml, fibrosis of cells was induced for 6 hours. After 6 hours, the cells were treated with pheophorbide a obtained in Preparation Example 2 or the therapeutic agent for pulmonary fibrosis and further cultured for 18 hours. […]
# The supernatant was separated, added with the same volume of isopropyl alcohol and centrifuged at 12,000×g for 10 minutes. […] After drying, about 50 μl of RNAase-free purified distilled water was added thereto, and the quantity and purity of the obtained RNA was measured using a spectrophotometer. […]
# After the cDNA synthesis reaction was completed, the reverse transcriptase was inactivated by heating at 72° C. for 5 minutes, and then RNase H was added to remove the […] RNA and obtain the final cDNA. Whether the expression of the alpha-smooth muscle actin gene, which is a characteristic gene of myofibroblasts, the CCN2 (or CTGF) gene, which is a characteristic gene for fibrosis, fibronectin, which is a characteristics gene for fibrosis, and the NOX4 (NADPH oxidase 4) gene known as a major regulator of the amount of reactive oxygen species was changed was observed through quantitative real-time polymerase chain reaction. The GAPDH gene was quantified together to correct differences in expression.
# [2] = tested on: collagen 1A, fibronectin and alpha-smooth muscle actin proteins in CCD8-Lu cells; assay: Anti-fibrotic activity by Western blotting (Experimental Example 3.1); conditions: 0.06-5 μM, 6 hours after TGF-β, 18 hours
# Procedure: A cell-based assay experiment was performed using Western blotting assay to analyze the anti-fibrotic activity of pheophorbide a.
# as §1, with “Then, about” for “About”, “were” for “were then”, “plate and” for “plate,”
# 24 hours later, following the treatment with TGF-β at a concentration of 5 ng/ml, fibrosis of cells was induced for 6 hours. After 6 hours, the cells were treated with pheophorbide a obtained in Preparation Example 2 and further cultured for 18 hours (FIG. 2). Then, the negative control group was treated with nothing, the positive control group was treated with TGF-β alone at a concentration of 5 ng/ml, and the experimental groups were treated with TGF-β at a concentration of […] and 6 hours later, with pheophorbide a at each concentration of 0.06 μM, 0.12 μM, 0.25 μM, 0.5 μM, 2.5 μM and 5 μM. […]
# The separated supernatant was obtained and transferred to a new microtube and then the protein was quantified using a bicinchoninic acid assay (BCA assay) protein quantitative kit. […]
# [3] = tested on: collagen 1A in CCD8-Lu cells; assay: Anti-fibrotic activity by immunocytochemistry staining (Experimental Example 3.2); conditions: 6 hours after 5 ng/ml TGF-β
# Procedure: A cell-based assay experiment was performed to analyze the anti-fibrotic activity of pheophorbide a obtained in Preparation Example 2, using immunocytochemistry staining method.
# as §1, with “2×10^4” for “2×10^5”, “24” for “6”, “plate and” for “plate,”
# After 24 hours, following the treatment with TGF-β at a concentration of 5 ng/ml, fibrosis of cells was induced for 6 hours. After 6 hours, the cells were treated with pheophorbide a obtained in Preparation Example 2 and further cultured for 18 hours (FIG. 2). Then, the negative control group was treated with nothing, the positive control group was treated with TGF-β alone at a concentration of 5 ng/ml, and the experimental groups were treated with TGF-β at a concentration of 5 ng/ml and 6 hours later, with pheophorbide a at each concentration of 0.15 μM, 0.3 μM, 0.6 μM, 1.2 μM, 2.5 μM and 5 μM.
# Immunohistochemistry analysis for each sample was performed as follows. […] The nuclei were stained using DAPI (4,6-diamidino-2-phenylindole) and the difference in the intensity of fluorescence was analyzed using a fluorescence microscope.
substance,measurement,setting,value
pheophorbide a,"expression of the α-SMA, CTGF and NOX4 genes induced by TGF-β",[1],remarkably inhibited
same,"expression of collagen 1A, fibronectin, and smooth muscle actin proteins induced by TGF-β",[2],inhibited
same,increased expression of collagen 1A induced by TGF-β,"[3]; 0.15-5 μM, fluorescence intensity",largely inhibited
same,inhibitory effect on the increased expression of collagen 1A induced by TGF-β,[3]; concentration of 2.5 μM or more,most excellent inhibitory effect
